Assay results from US11672799B2, “1,4-disubstituted pyridazine quinolne analogs there of and methods for treating SMN-deficiency-related conditions” (Novartis AG, priority 2013, dated 2023).
Where two headings read alike, the source gives them in different places.

Test system: SMN protein
Assay: cellular SMN ELISA (SMN protein elevation) in myoblast cell line from SMNdelta7 mouse model
Type: cell-based
Protocol: A cellular SMN ELISA was used to measure the effects of low molecular weight compounds on SMN protein elevation. Cells from a myoblast cell line derived from the SMNdelta7 mouse model (kind gift from Steve Burden, NYU) were seeded into a 384-well plate at a density of 3000 cells/well and treated with compounds for 24 hours. ELISA capture plates were prepared by coating 384-well plates (Immulon 4HBX) with 0.5 ug/mL of anti-SMN mAb (BD Science, Catalog number 610647) at 4° C. overnight. The plates were washed 5 times with 110 uL of PBS-Tween (0.05% Tween-20, PBST), blocked with 100 uL of 1% BSA in PBST for 2 hours and washed (5 times) with 100 uL of PBST. After 24 hours of compound treatment cells were lysed in a modified RIPA-buffer, on ice for 1 hour. 20 uL of lysate and 20 uL of 1% BSA were then added to the ELISA capture plates and incubated at 4° C. overnight. Plates were washed (5 times) with PBST and then incubated with 1:100 dilution of primary rabbit anti-SMN polyclonal antibody (Santa cruz, Catalog number SC-15320) at room temperature for 1 hour and subsequently washed (5 times) with 110 uL of PBST. This was followed by addition of 1:100 Goat anti-Rabbit IgG-HRP linked (Cell Signaling, Catalog number 7074) secondary antibody for 1 hour. Plates were then washed with PBST and incubated with 40 uL TMB substrate (Cell Signaling, Catalog number 7004 L) at room temperature for 1-10 minutes with shaking. The reaction was stopped by addition of 40 uL of stop solution (Cell signaling, Catalog number 7002 L) and absorption was measured at 450 nm. Data was reported as fold activation over DMSO control, and EC50.
ELISA assay condition 1: compound concentration range 20 nM-10 uM; ELISA assay condition 2: compound concentration 100 pM-10 uM. Data generated in Biological Example 1 using ELISA conditions 1 or 2.

[1] = Biological Example 1, SMN ELISA, SMNdelta7 mouse myoblasts, 24 hours compound treatment
[2] = Biological Example 1, SMN ELISA, SMNdelta7 mouse myoblasts, 24 hours compound treatment, read-out: SMN Activity (EC50)

Structure (SMILES)	SMN Activity (fold activation over DMSO control) [1]	EC50 [2]	Fold activation (comparison of unsubstituted, ortho-hydroxy and ortho-alkoxy pyridazines, as in Biological Example 1)	EC50 (comparison of unsubstituted, ortho-hydroxy and ortho-alkoxy pyridazines, as in Biological Example 1, read-out: SMN ELISA EC50)
Oc1cc2cccnc2cc1-c1ccc(C2=CCNCC2)nn1 [Example 28-1, 7-(6-(1,2,3,6-tetrahydropyridin-4-yl)pyridazin-3-yl)quinolin-6-ol]	1.9 fold	155 nM	–	–
Cc1ccc2cc(-c3ccc(N(C)C4CC(C)(C)NC(C)(C)C4)nn3)c(O)cc2n1 [Example 2-1, 2-methyl-6-(6-(methyl(2,2,6,6-tetramethylpiperidin-4-yl)amino)pyridazin-3-yl)quinolin-7-ol]	3.0 fold	20 nM	–	–
Cc1cc(N2CCOCC2)c2cc(-c3ccc(N(C)C4CC(C)(C)NC(C)(C)C4)nn3)c(O)cc2n1 [Example 10-3, 2-Methyl-6-(6-(methyl(2,2,6,6-tetramethylpiperidin-4-yl)amino)pyridazin-3-yl)-4-morpholinoquinolin-7-ol]	2.6 fold	110 nM	–	–
CN(c1ccc(-c2cc3cc(Cl)cnc3cc2O)nn1)C1CC(C)(C)NC(C)(C)C1 [Example 7-1, 3-chloro-6-(6-(methyl(2,2,6,6-tetramethylpiperidin-4-yl)amino)pyridazin-3-yl)quinolin-7-ol]	2.8 fold	14 nM	–	–
CC1(C)CC(Oc2ccc(-c3cc4cnccc4cc3O)nn2)CC(C)(C)N1 [Example 3-3, 7-(6-((2,2,6,6-tetramethylpiperidin-4-yl)oxy)pyridazin-3-yl)isoquinolin-6-ol]	2.5 fold	83 nM	–	–
Cc1cnc2cc(-c3ccc(N(C)C4CC(C)(C)NC(C)(C)C4)nn3)c(O)c(Br)c2c1 [Example 16-1, 5-bromo-3-methyl-7-(6-(methyl(2,2,6,6-tetramethylpiperidin-4-yl)amino)pyridazin-3-yl)quinolin-6-ol]	2.44 fold	258 nM	–	–
CN(C)c1ccnc2cc(O)c(-c3ccc(N(C)C4CC(C)(C)NC(C)(C)C4)nn3)cc12 [Example 21-1, 4-(dimethylamino)-6-(6-(methyl(2,2,6,6-tetramethylpiperidin-4-yl)amino)pyridazin-3-yl)quinolin-7-ol]	3.01 fold	60 nM	–	–
Cc1cnc2cc(-c3ccc(N(C)C4CC(C)(C)NC(C)(C)C4)nn3)c(O)cc2n1 [Example 18-3, 3-methyl-7-(6-(methyl(2,2,6,6-tetramethylpiperidin-4-yl)amino)pyridazin-3-yl)quinoxalin-6-ol]	2.72 fold	16 nM	–	–
Cc1nccc2cc(O)c(-c3ccc(N(C)C4CC(C)(C)NC(C)(C)C4)nn3)cc12 [Example 29-2, 1-methyl-7-(6-(methyl(2,2,6,6-tetramethylpiperidin-4-yl)amino)pyridazin-3-yl)isoquinolin-6-ol]	2.53 fold	9 nM	–	–
CN(c1ccc(-c2cc3cccnc3cc2O)nn1)C1CC(C)(C)N(C)C(C)(C)C1 [Example 1-2, 6-(6-(methyl(1,2,2,6,6-pentamethylpiperidin-4-yl)amino)pyridazin-3-yl)quinolin-7-ol]	2.4 fold	340 nM	–	–
CN1C(=O)CCc2cc(-c3ccc(N(C)C4CC(C)(C)NC(C)(C)C4)nn3)c(O)cc21 [Example 24-1, 7-hydroxy-1-methyl-6-(6-(methyl(2,2,6,6-tetramethylpiperidin-4-yl)amino)pyridazin-3-yl)-3,4-dihydroquinolin-2(1H)-one]	1.74 fold	71 nM	–	–
Cc1nc2cc(O)c(-c3ccc(N(C)C4CC(C)(C)NC(C)(C)C4)nn3)cc2nc1C [Example 18-1, 2,3-dimethyl-7-(6-(methyl(2,2,6,6-tetramethylpiperidin-4-yl)amino)pyridazin-3-yl)quinoxalin-6-ol]	3.24 fold	15 nM	–	–
CN(c1ccc(-c2cc3ncc(Cl)cc3cc2O)nn1)C1CC(C)(C)NC(C)(C)C1 [Example 15-1, 3-chloro-7-(6-(methyl(2,2,6,6-tetramethylpiperidin-4-yl)amino)pyridazin-3-yl)quinolin-6-ol]	2.68 fold	16 nM	–	–
CN(c1ccc(-c2cc3c(Cl)ccnc3cc2O)nn1)C1CC(C)(C)NC(C)(C)C1 [Preparation 12, 4-chloro-6-(6-(methyl(2,2,6,6-tetramethylpiperidin-4-yl)amino)pyridazin-3-yl)quinolin-7-ol]	2.6 fold	30 nM	–	–
CN1C[C@@H]2CN(c3ccc(-c4cc5cnccc5cc4O)nn3)C[C@@H]2C1 [Example 3-4, 7-(6-((3aR,6aS)-5-methylhexahydropyrrolo[3,4-c]pyrrol-2(1H)-yl)pyridazin-3-yl)isoquinolin-6-ol]	2.3 fold	60 nM	–	–
CN(c1ccc(-c2ccc3ncccc3c2)nn1)C1CC(C)(C)NC(C)(C)C1 [drawing 135 R = H]	–	–	2.2	660 nM
N#Cc1ccc2cc(O)c(-c3ccc(N4CCNCC4)nn3)cc2n1 [Example 27-1, 6-hydroxy-7-(6-(piperazin-1-yl)pyridazin-3-yl)quinoline-2-carbonitrile]	2.49 fold	46 nM	–	–
Cc1cc2cc(O)c(-c3ccc(N(C)C4CC(C)(C)NC(C)(C)C4)nn3)cc2cn1 [Example 36-2, 3-methyl-7-(6-(methyl(2,2,6,6-tetramethylpiperidin-4-yl)amino)-pyridazin-3-yl)isoquinolin-6-ol]	2.64 fold	9 nM	–	–
Oc1cc2ccncc2cc1-c1ccc(N2CCNCC2)nn1 [Example 27-3, 7-(6-(piperazin-1-yl)pyridazin-3-yl)isoquinolin-6-ol]	2.74 fold	199 nM	–	–
Cc1nccc2cc(-c3ccc(N(C)C4CC(C)(C)NC(C)(C)C4)nn3)c(O)cc12 [Example 29-1, 1-methyl-6-(6-(methyl(2,2,6,6-tetramethylpiperidin-4-yl)amino)pyridazin-3-yl)isoquinolin-7-ol]	2.96 fold	14 nM	–	–
CN(c1ccc(-c2cc3cc(-n4ccnc4)cnc3cc2O)nn1)C1CC(C)(C)NC(C)(C)C1 [Example 7-5, 3-(1H-imidazol-1-yl)-6-(6-(methyl(2,2,6,6-tetramethylpiperidin-4-yl)amino)pyridazin-3-yl)quinolin-7-ol]	2.5 fold	50 nM	–	–
CN(c1ccc(-c2cc3cnc(-c4ccccc4)cc3cc2O)nn1)C1CC(C)(C)NC(C)(C)C1 [Example 36-1, 7-(6-(methyl(2,2,6,6-tetramethyl-piperidin-4-yl)amino)-pyridazin-3-yl)-3-phenylisoquinolin-6-ol]	2.32 fold	282 nM	–	–
Cc1cnc2cc(O)c(-c3ccc(N(C)C4CC(C)(C)NC(C)(C)C4)nn3)cc2n1 [Example 18-2, 2-methyl-7-(6-(methyl(2,2,6,6-tetramethylpiperidin-4-yl)amino)pyridazin-3-yl)quinoxalin-6-ol]	3.31 fold	9 nM	–	–
CN1C[C@@H]2CN(c3ccc(-c4cc5cccnc5cc4O)nn3)C[C@@H]2C1 [Example 1-3, 6-(6-((3aR,6aS)-5-methylhexahydropyrrolo[3,4-c]pyrrol-2(1H)-yl)pyridazin-3-yl)quinolin-7-ol]	2.5 fold	255 nM	–	–
